According to the NIST ThermoML archive (doi:10.1016/j.tca.2012.07.004):

Experiment: xn = mol fraction of the nth substance listed
Conditions: 101 kPa, Liquid; for mass density: Vibrating tube method; for viscosity: Vibrating wire viscometry; for speed of sound: ultrasonic interferometer

C[NH+](C)C.O=P([O-])(O)O [trimethylammonium dihydrogen phosphate] + CN1CCCC1=O
Conditions | mass density [kg/m3] | speed of sound [m/s] | viscosity [mPa·s]
298.15 K, x1 = 0.0201 | 1041.43 | 1573 | 2.89
298.15 K, x1 = 0.0391 | 1053.47 | 1586 | 6.08
298.15 K, x1 = 0.1028 | 1089.8 | 1610 | 13.47
298.15 K, x1 = 0.1462 | 1113.92 | 1626 | 18.44
298.15 K, x1 = 0.211 | 1148.18 | 1653 | 25.04
298.15 K, x1 = 0.3267 | 1196.88 | 1680 | 30.52
298.15 K, x1 = 0.3746 | 1213.72 | 1686 | 31.03
298.15 K, x1 = 0.4469 | 1236.58 | 1695 | 31.16
298.15 K, x1 = 0.5751 | 1270.11 | 1695 | 27.7
298.15 K, x1 = 0.7093 | 1297.11 | 1691 | 21.12
298.15 K, x1 = 0.852 | 1325.36 | 1673 | 12.99
298.15 K, x1 = 0.9413 | 1342.23 | 1665 | 8.68
298.15 K, x1 = 0.9719 | 1348.52 | 1665 | 7.48
298.15 K, x1 = 1 | 1353.61 | 1672 | 7.64
303.15 K, x1 = 0.0201 | 1034.74 | 1570 | 2.13
303.15 K, x1 = 0.0391 | 1045.35 | 1582 | 3.98
303.15 K, x1 = 0.1028 | 1081.42 | 1604 | 11.55
303.15 K, x1 = 0.1462 | 1104.62 | 1624 | 15.87
303.15 K, x1 = 0.211 | 1136.57 | 1644 | 21.79
303.15 K, x1 = 0.3267 | 1183.7 | 1671 | 26.64
303.15 K, x1 = 0.3746 | 1200.24 | 1679 | 27.3
303.15 K, x1 = 0.4469 | 1223.4 | 1692 | 26.98
303.15 K, x1 = 0.5751 | 1257.32 | 1692 | 24.1
303.15 K, x1 = 0.7093 | 1286.38 | 1690 | 18.07
303.15 K, x1 = 0.852 | 1317.91 | 1675 | 10.86
303.15 K, x1 = 0.9413 | 1337.6 | 1663 | 7.93
303.15 K, x1 = 0.9719 | 1344.48 | 1662 | 6.79
303.15 K, x1 = 1 | 1350.62 | 1660 | 6.46
308.15 K, x1 = 0.0201 | 1028.37 | 1550 | 1.54
308.15 K, x1 = 0.0391 | 1038.12 | 1564 | 2.3
308.15 K, x1 = 0.1028 | 1073.87 | 1587 | 8.69
308.15 K, x1 = 0.1462 | 1095.84 | 1606 | 11.98
308.15 K, x1 = 0.211 | 1126.55 | 1633 | 16.24
308.15 K, x1 = 0.3267 | 1173.1 | 1663 | 20.11
308.15 K, x1 = 0.3746 | 1189.72 | 1673 | 20.71
308.15 K, x1 = 0.4469 | 1213.08 | 1688 | 20.64
308.15 K, x1 = 0.5751 | 1248.1 | 1693 | 18.68
308.15 K, x1 = 0.7093 | 1279.47 | 1691 | 14.21
308.15 K, x1 = 0.852 | 1311.88 | 1685 | 8.83
308.15 K, x1 = 0.9413 | 1332.36 | 1675 | 7.25
308.15 K, x1 = 0.9719 | 1339.9 | 1673 | 6.6
308.15 K, x1 = 1 | 1347.59 | 1661 | 5.61
313.15 K, x1 = 0.0201 | 1023.28 | 1544 | 1.47
313.15 K, x1 = 0.0391 | 1031.97 | 1560 | 2.82
313.15 K, x1 = 0.1028 | 1065.17 | 1588 | 6.92
313.15 K, x1 = 0.1462 | 1086.37 | 1608 | 9.58
313.15 K, x1 = 0.211 | 1116.83 | 1637 | 12.74
313.15 K, x1 = 0.3267 | 1161.79 | 1672 | 16.43
313.15 K, x1 = 0.3746 | 1178.19 | 1684 | 16.55
313.15 K, x1 = 0.4469 | 1201.94 | 1702 | 16.53
313.15 K, x1 = 0.5751 | 1237.68 | 1708 | 15.2
313.15 K, x1 = 0.7093 | 1270.77 | 1704 | 11.9
313.15 K, x1 = 0.852 | 1305.61 | 1697 | 7.17
313.15 K, x1 = 0.9413 | 1327.25 | 1684 | 6.73
313.15 K, x1 = 0.9719 | 1335.1 | 1682 | 5.76
313.15 K, x1 = 1 | 1344.53 | 1664 | 5.07
